Assays:
Assay type in all cases: in vivo
[1] = system: Italian ryegrass (Lolium mutiflorum); experiment: Test C preemergence, visual plant response rating
In short: (§1)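 Compounds in a non-phytotoxic solvent with surfactant were applied as a directed soil spray preemergence or to 2–10 cm, one- to two-leaf plants postemergence, in loam–sand soil. After about 10 d in a greenhouse, injury was visually rated against untreated controls on a 0–100 scale (100 = complete control).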

[2] = system: barnyardgrass (Echinochloa crus-galli); experiment: Test C preemergence, visual plant response rating
In short: as §1

[3] = system: foxtail, giant (giant foxtail, Setaria faberi); experiment: Test C preemergence, visual plant response rating
In short: as §1

kochia (Bassia scoparia) [4] = experiment: Test C preemergence, visual plant response rating
In short: as §1

[5] = system: pigweed (Amaranthus retroflexus); experiment: Test C preemergence, visual plant response rating
In short: as §1

[6] = system: ragweed (common ragweed, Ambrosia artemisiifolia); experiment: Test C preemergence, visual plant response rating
In short: as §1

[7] = system: Italian ryegrass (Lolium mutiflorum); experiment: Test C postemergence, visual plant response rating
In short: as §1

[8] = system: barnyardgrass (Echinochloa crus-galli); experiment: Test C postemergence, visual plant response rating
In short: as §1

[9] = system: blackgrass (Alopecurus myosuroides); experiment: Test C postemergence, visual plant response rating
In short: as §1

corn (Zea mays) = experiment: Test C postemergence, visual plant response rating
In short: as §1

[10] = system: foxtail, giant (giant foxtail, Setaria faberi); experiment: Test C postemergence, visual plant response rating
In short: as §1

[11] = system: galium (catchweed bedstraw, Galium aparine); experiment: Test C postemergence, visual plant response rating
In short: as §1

kochia (Bassia scoparia) [12] = experiment: Test C postemergence, visual plant response rating
In short: as §1

[13] = system: pigweed (Amaranthus retroflexus); experiment: Test C postemergence, visual plant response rating
In short: as §1

[14] = system: ragweed (common ragweed, Ambrosia artemisiifolia); experiment: Test C postemergence, visual plant response rating
In short: as §1

[15] = system: wheat (Triticum aestivum); experiment: Test C postemergence, visual plant response rating
In short: as §1

[16] = system: barnyardgrass (Echinochloa crus-galli); experiment: Test D flooded paddy test, visual plant response rating; details: 250 g ai/ha, scale 0 to 100 (0 no effect, 100 complete control), 13 to 15 d
In short: (§2)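 2-leaf plants, flooded 3 cm, cpd into paddy water; greenhouse 13–15 d; visual rating vs controls, 0 = no effect, 100 = complete control; dash = no result.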

[17] = system: duck salad (Heteranthera limosa); experiment: as above; details: 250 g ai/ha, scale 0 to 100 (0 no effect, 100 complete control), 13 to 15 d
In short: as §2

rice (Oryza sativa) = experiment: as above; details: 250 g ai/ha, scale 0 to 100 (0 no effect, 100 complete control), 13 to 15 d
In short: as §2

[18] = system: sedge umbrella (small-flower umbrella sedge, Cyperus difformis); experiment: as above; details: 250 g ai/ha, scale 0 to 100 (0 no effect, 100 complete control), 13 to 15 d
In short: as §2

[19] = Test C, 31 g ai/ha, 0 is no effect, 100 is complete control
[20] = Test C, 125 g ai/ha, 0 is no effect, 100 is complete control
[21] = Test C, postemergence, 125 g ai/ha

SMILES	Ryegrass, Italian plant response rating (0 to 100 scale) [1, 19]	Barnyardgrass plant response rating (0 to 100 scale) [2, 19]	Foxtail, Giant plant response rating (0 to 100 scale) [3, 19]	Kochia plant response rating (0 to 100 scale) (kochia (Bassia scoparia) [4]; [19])	Pigweed plant response rating (0 to 100 scale) [5, 19]	Ragweed plant response rating (0 to 100 scale) [6, 19]	Ryegrass, Italian plant response rating (0 to 100 scale) ([7]; Postemergence, 31 g ai/ha)	Ryegrass, Italian plant response rating (0 to 100 scale) [7, 21]	Barnyardgrass plant response rating (0 to 100 scale) ([8]; Postemergence, 31 g ai/ha)	Barnyardgrass plant response rating (0 to 100 scale) [8, 21]	Blackgrass plant response rating (0 to 100 scale) ([9]; Postemergence, 31 g ai/ha)	Blackgrass plant response rating (0 to 100 scale) [9, 21]	Corn plant response rating (0 to 100 scale) (corn (Zea mays); Postemergence, 31 g ai/ha)	Corn plant response rating (0 to 100 scale) (corn (Zea mays); [21])	Foxtail, Giant plant response rating (0 to 100 scale) ([10]; Postemergence, 31 g ai/ha)	Foxtail, Giant plant response rating (0 to 100 scale) [10, 21]	Galium plant response rating (0 to 100 scale) ([11]; Postemergence, 31 g ai/ha)	Galium plant response rating (0 to 100 scale) [11, 21]	Kochia plant response rating (0 to 100 scale) (kochia (Bassia scoparia) [12]; Postemergence, 31 g ai/ha)	Kochia plant response rating (0 to 100 scale) (kochia (Bassia scoparia) [12]; [21])	other results
C#CCO/N=C(/c1cccc(/C=C/Cl)c1)c1c(O)c(C)nn(C)c1=O [Compound 253]	0	0	0	0	0	0	10	60	10	40	20	60	0	0	20	50	30	50	20	60	Ryegrass, Italian plant response rating (0 to 100 scale) [1, 20]: 30; Barnyardgrass plant response rating (0 to 100 scale) [2, 20]: 0; Foxtail, Giant plant response rating (0 to 100 scale) [3, 20]: 10; Kochia plant response rating (0 to 100 scale) (kochia (Bassia scoparia) [4]; [20]): 0; Pigweed plant response rating (0 to 100 scale) [5, 20]: 80; Ragweed plant response rating (0 to 100 scale) [6, 20]: 0; Pigweed plant response rating (0 to 100 scale) ([13]; Postemergence, 31 g ai/ha): 50; Pigweed plant response rating (0 to 100 scale) [13, 21]: 70; Ragweed plant response rating (0 to 100 scale) ([14]; Postemergence, 31 g ai/ha): 30; Ragweed plant response rating (0 to 100 scale) [14, 21]: 40; Wheat plant response rating (0 to 100 scale) ([15]; Postemergence, 31 g ai/ha): 0; Wheat plant response rating (0 to 100 scale) [15, 21]: 30; Plant response rating, Barnyardgrass (Flood) [16]: 0; Plant response rating, Ducksalad (Flood) [17]: 0; Plant response rating, Rice (Flood) (rice (Oryza sativa)): 0; Plant response rating, Sedge, Umbrella (Flood) [18]: 0
CO/N=C(/c1cc(C)cc(Cl)c1)c1c(O)c(C)nn(C)c1=O [Compound 173]	30	60	40	60	30	30	80	100	50	80	20	40	0	20	30	80	90	100	60	90	Ryegrass, Italian plant response rating (0 to 100 scale) ([1]; 125 g ai/ha): 100; Barnyardgrass plant response rating (0 to 100 scale) ([2]; 125 g ai/ha): 50; Foxtail, Giant plant response rating (0 to 100 scale) ([3]; 125 g ai/ha): 90; Kochia plant response rating (0 to 100 scale) (kochia (Bassia scoparia) [4]; 125 g ai/ha): 80; Pigweed plant response rating (0 to 100 scale) ([5]; 125 g ai/ha): 30; Ragweed plant response rating (0 to 100 scale) ([6]; 125 g ai/ha): 90; Pigweed plant response rating (0 to 100 scale) ([13]; Postemergence, 31 g ai/ha): 70; Pigweed plant response rating (0 to 100 scale) [13, 21]: 90; Ragweed plant response rating (0 to 100 scale) ([14]; Postemergence, 31 g ai/ha): 80; Ragweed plant response rating (0 to 100 scale) [14, 21]: 100; Wheat plant response rating (0 to 100 scale) ([15]; Postemergence, 31 g ai/ha): 0; Wheat plant response rating (0 to 100 scale) [15, 21]: 0; Plant response rating, Barnyardgrass (Flood) [16]: 0; Plant response rating, Ducksalad (Flood) [17]: 0; Plant response rating, Rice (Flood) (rice (Oryza sativa)): 0; Plant response rating, Sedge, Umbrella (Flood) [18]: 0
CC(C)O/N=C(/c1c(O)cnn(C)c1=O)c1ccc(F)c2ccccc12 [Compound 302]	0	0	0	0	10	0	0	30	0	0	0	0	0	0	10	30	20	60	0	20	Ryegrass, Italian plant response rating (0 to 100 scale) [1, 20]: 0; Barnyardgrass plant response rating (0 to 100 scale) [2, 20]: 0; Foxtail, Giant plant response rating (0 to 100 scale) [3, 20]: 10; Kochia plant response rating (0 to 100 scale) (kochia (Bassia scoparia) [4]; [20]): 0; Pigweed plant response rating (0 to 100 scale) [5, 20]: 40; Ragweed plant response rating (0 to 100 scale) [6, 20]: 20; Pigweed plant response rating (0 to 100 scale) ([13]; Postemergence, 31 g ai/ha): 30; Pigweed plant response rating (0 to 100 scale) [13, 21]: 60; Ragweed plant response rating (0 to 100 scale) ([14]; Postemergence, 31 g ai/ha): 0; Ragweed plant response rating (0 to 100 scale) [14, 21]: 20; Wheat plant response rating (0 to 100 scale) ([15]; Postemergence, 31 g ai/ha): 0; Wheat plant response rating (0 to 100 scale) [15, 21]: 0; Plant response rating, Barnyardgrass (Flood) [16]: 0; Plant response rating, Ducksalad (Flood) [17]: 0; Plant response rating, Rice (Flood) (rice (Oryza sativa)): 0; Plant response rating, Sedge, Umbrella (Flood) [18]: 0
